Where two headings read alike, the source gives them in different places.
Key:
[1] = system: ppMlc (T18/S19) levels in A7R5 cells; assay: A7R5 in-cell ELISA assay (ppMlc); assay type: cell-based, rat; details: Rattus norvegicus, A7R5, A7R5 cells
In short: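 Rat aortic smooth muscle A7R5 cells in DMEM with 10% FBS, seeded 24 h, then treated 90 min with 9-point 2-fold compound dilutions. ppMlc (T18/S19) measured by colorimetric in-cell ELISA; cellular IC50 from nonlinear regression curve fit.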

[2] = system: ppMlc (T18/S19) and pMypt (T853) in Svec 4-10 mouse endothelial cells; assay: Western blot of Svec 4-10 cell lysates; assay type: cell-based; details: 110 nM, 120 min
Protocol: FIG. 1d. Western blot of SVEC4-10 cell lysates to visualize ppMlc (T18/S19) & pMYPT (T853) levels following treatment with the compound of Example 2 for 120 min. SVEC4-10 cells were treated with the compound and phosphorylated proteins were visualized by western blotting.
Compounds ROCK activities were tested in additional cell types. Svec 4-10 mouse endothelial cells were treated with the compound of Example 2 for 120 min and ppMlc (T18/S19) and pMypt (T853) levels were visualized by western blotting.

[3] = system: human oligodendrocyte/neuron progenitor cells; assay: Neurite outgrowth and differentiation of human oligodendrocyte/neuron progenitors; assay type: cell-based
Protocol: Thawing and proliferation of human oligodendrocyte/neuron progenitor cells (OPCs). Cryopreserved human oligodendrocyte/neuron progenitors (Millipore Cat. No. CS204496) were recovered and cultured on maltrigel (BD Cat. No. 356324) coated T-25 flask in expansion media containing OPC/neuron basal medium, N21 medium supplement, recombinant human bFGF, PDGF-AA and NT-3. When cells reached 80% confluent, 3 ml of Accutase was applied (Millipore SCR005) to passage cells at 1:4 ratio. Sub-cultured cells were maintained in expansion media for proliferation.
Spontaneous differentiation of human oligodendrocyte/neuron progenitors in 24-well and 96-well plates. Coat plate with 10 μg/ml poly-L-ornithine (Sigma Cat. No. P4957) overnight at room temperature. Remove the poly-L-ornithine solution and rinse the plate with 1×PBS, add 10 μg/ml laminin (Millipore Cat. No. CC095) and incubate at 37° C. for at least 2 hours. Seed cells on the coated plates in expansion media and allowed to attach overnight. The next day expansion media was removed and replaced with freshly prepared spontaneous differentiation media only containing OPC/neuron basal media and N21 media supplement. For 14 day culture, differentiation media was replaced every 3-4 days. Cells were imaged and neurite length was analyzed by IncuCyte S3 Live Cell Analysis System every 4 hours. After 14 days of differentiation, cells were fixed by 4% paraformaldehyde and stained with DAPI and Neuron-specific ß-III tubulin antibody (R&D systems, NL1195R).

[4] = system: human oligodendrocyte/neuron progenitor cells; assay: Aβ 1-42 induced cell death assay on human oligodendrocyte/neuron progenitors; assay type: cell-based; details: 3 μM, 10.5 μM Aβ1-42, 24 hour
Protocol: Aβ 1-42 induced cell death assay on human oligodendrocyte/neuron progenitors in 96-well plate. Cells were seeded on poly-L-ornithine and laminin coated plates at a density of 8,000 cells per well and maintained in expansion media until Day 3, then media was replaced with fresh spontaneous differentiation media containing testing compounds and IncuCyte Annexin V Red Reagent (1:200 dilution) (Essen BioScience Cat. No. 4641). After the pre-incubation period of 30 minutes at 37° C., 10.5 μM Aβ 1-42 (Bachem Product No. H-8146) was added directly in the pretreatment solution. Neurite length and total Annexin V positive area were analyzed by IncuCyte S3 Live Cell Analysis System every 2 hours.
In addition to promoting neuroregeneration, ROCK inhibitors have been reported to exert neuroprotective effects and prolong neuronal survival. Here we test the neuroprotective effect of ROCK inhibitors against Aβ1-42. Human oligodendrocyte/neuron progenitor cells were pre-incubated with ROCK inhibitors for 30 minutes before exposing to 10.5 μM Aβ1-42. IncuCyte Annexin V Red Reagent was added to culture media to label cell apoptosis. Pictures were taken by IncuCyte S3 and total Annexin V positive area was analyzed by IncuCyte S3 base software. Neurite length was quantified by IncuCyte NeuroTrack Software Module, see FIGS. 3b and 3c.

[5] = system: bleomycin induced lung fibrosis; assay: Bleomycin induced lung fibrosis in mice (prophylactic administration); assay type: in vivo, mouse; details: oral once daily, 21-day treatment; ≥10 mg/kg
Protocol: Bleomycin induced lung fibrosis in mice (Phrophylactic administration): Male C57B/L6 mice were ear tagged and weighed prior to the start of the study. Treatment group animals were treated with the compound on day −1 pre-bleomycin and all subsequent days post-bleomycin administration. On day 0, animals in disease groups received 1.5 U/kg dose of bleomycin via oropharyngeal route. The non-bleomycin control group received sterile saline. Animals were closely monitored daily till the end of the study. On day 21 following bleomycin administration, all animals were euthanized and blood, lung, and bronchoalveolar lavage (BAL) fluid were collected. Blood samples were used for plasma preparation; total leukocytes were counted in BAL fluid; and lungs were fixed in 10% neutral buffered formalin for histopathological analysis. Based on the strong anti-fibrotic cellular activity of ROCK inhibitors of this invention, the ability of such inhibitors to attenuate fibrosis in the in vivo setting was assessed in several mouse models of fibrotic diseases including the bleomycin induced pulmonary fibrosis. […] The improvement in the overall lung fibrosis, α-smooth muscle actin (αSMA) percentage positive area and total leukocytes count in bronchoalveolar lavage fluid was quantitated by applying the Ashcoft score criteria to the histopathology images, IHC quantitation and flowcytometry respectively.

**Q.** How did the IC50 ([1]; Table 2, read-out: pMLC IC50 (nM) A7R5) turn out when `CNC(C(=O)Nc1ccc(-c2cn[nH]c2)cc1)c1cccc(OC)c1` (stereo not shown) [Example 2, N-(4-(1H-pyrazol-4-yl)phenyl)-2-(3-methoxyphenyl)-2-(methylamino)acetamide] was run?
**A.** The IC50 was 120 nM.

**Q.** And the IC50 ([1]; ppMlc (T18/S19), in-cell ELISA, read-out: ppMlc IC50)?
**A.** The IC50 was 86 nM.

**Q.** What about the “phosphorylation of ROCK targets MLC and MYPT1” value [2] of the same molecule?
**A.** Its value is “efficiently blocked phosphorylation”.

**Q.** What about the “neuronal differentiation and maturation” value ([3]; 14 days culture, Beta III tubulin) of the same molecule?
**A.** Its value is “facility neuronal differentiation and maturation”.

**Q.** What about the neurite length ([3]; various concentrations, 3 days culture) of the same molecule?
**A.** The neurite length was “significantly increase neurite length”.

**Q.** And the “Aβ1-42 induced cell death (Annexin V area)” value [4]?
**A.** The value was “significantly protect”.

**Q.** And the “Ashcroft fibrotic indices, αSMA percentage positive area and total leukocytes count in bronchoalveolar lavage fluid” value [5]?
**A.** The value was “positive activity”.
